Measured values reported in publication PMC4020785 (PLoS ONE, 2014).

What was measured:
[1] = tested on: PKC; assay: PKC inhibitors on diterpene-induced GFP expression in J-Lat clones 9.2 and 10.6; assay type: cell-based
Protocol: (§1) For analysis of cell surface marker expression, MT-4 cells and bead-selected CD4+ T cells (described above) were incubated with 1 µM of each compound (ING-A, ING-B, ING-C, prostratin, PMA, and bryostatin-1) at 37°C for 48 h. After incubation, cells were washed with PBS and incubated for 20 min at room temperature with antibodies against CD3-Brilliant Violet 510 (clone OKT3 – Biolegend), CD4-Qdot 655 (clone 53.5 - Life Technologies), CXCR4-PE (clone 1265 - BD Biosciences), CCR5-PerCP-Cy5.5 (clone 3A9 - BD Biosciences), CD69-Pacific Blue (clone FN50 – BD Biosciences), CD38-FITC (clone AT-1 – Stem Cell Technologies), CD25-APC (clone 2A3 – BD Biosciences), HLA-DR-Qdot 605 (clone TÜ36 – Life Technologies) and a marker for annexin V-FITC (Life Technologies). Cells (both MT-4 cells and CD4+ T cells) were initially incubated for 2 h with different PKC inhibitors (GÖ6983, GÖ6976 or RO-31-8220). Then, ING-B, prostratin or PMA at 1 µM or TNF-α at 10 ng/mL were added to each condition and incubation was carried out for 24 h at 37°C. Similar protocol was used for the analysis of PKC inhibitors in J-Lat clones 9.2 and 10.6. GFP expression, surface marker expression and activation marker were evaluated on a LSR Fortessa cytometer (BD Biosciences). Data analysis was performed using FlowJo software (Tree Star).

[2] = tested on: PKC; assay: PKC inhibitors on ING-B-driven receptor downregulation in MT-4 cells; assay type: cell-based; conditions: 0.1 µM inhibitor, then 1 µM ING-B 24 h
Protocol: as §1

[3] = tested on: PKC; assay: PKC inhibitors on ING-B-driven receptor downregulation in CD4+ T lymphocytes; assay type: cell-based, human; conditions: 0.1 µM inhibitor in the presence of 1 µM ING-B
Protocol: as §1

[4] = tested on: HIV LTR in J-Lat clones; assay: LTR-driven GFP expression in J-Lat clones; assay type: cell-based, HIV-1; conditions: J-Lat clones 9.2 and 10.6, 48 h, all concentrations tested
Protocol: J-Lat cells are Jurkat cells stably transfected by an HIV genome whose nef sequence was replaced by the GFP gene. Also, a frameshift mutation was introduced to the env gene to prevent virus spread. […] To test the ISDs, a million cells of each clone were treated with different concentrations of each compound (ING-A, ING-B, ING-C, prostratin and PMA) at 37°C. TNF-α (10 ng/mL) was used as a positive control. After 48 h, cells were collected, washed with saline solution (PBS) and GFP expression was evaluated in a FACScalibur cytometer (BD Biosciences). Data were analyzed with Cell Quest Pro software (BD Biosciences).

[5] = Cytotoxicity (CC50) in human PBMCs; assay type: cell-based; conditions: human PBMCs activated with IL-2 and PHA-P; Human PBMC, Subtype C (R5)
Protocol: (§2) Cytotoxicity of ISDs was evaluated in J-Lat (clones 9.2 and 10.6) and PHA-activated human PBMCs. Cells were added to wells in a 96-well plate in the presence of various concentrations of ISDs, PMA or prostratin in sextuplicates for 24 and 72 h. Cell viability was determined using the CellTiter-blue fluorescence Cell Viability Assay (Promega) following the manufacturer's instruction.
(§3) Human PMBCs were incubated with 100 U recombinant IL-2 (Sigma-Aldrich) and 5 µg/mL phytohemagglutinin-P (PHA-P) (Difco) for 5 days at 37°C. MT-4 cells (1×10^6) or treated PBMCs (1.2×10^8) were infected with HIV-1 clone NL-4.3 or ZM247Fv-1 (MOI of 0.001) by spinoculation (1200 g at room temperature for 2 h). Uninfected cells were used as negative control and were also subjected to the spinoculation process. After spinoculation, supernatants were discarded and cells were resuspended in 10 mL of R10. Cells from each condition were then added to wells (96-well plate) containing serial dilutions of each ISD. For MT-4 cells, each dilution was done in sextuplicates and, for PBMCs, in triplicates. Cells were also incubated with different concentrations of ZDV as positive control. After 5 days in culture, Cell Titer Blue was added to each well and cells were incubated for additional 24 h. The median effective concentration for each drug is defined as EC50. In parallel with the infectivity assay, the same cell types were treated with different concentrations of drugs to determine their cytotoxicity, following the protocol described above. Drug concentration that results in a 50% decrease in viable cells is defined as the CC50 for each compound. EC50 was calculated according to Spearman-Karber and therapeutic index was defined by the ratio between CC50 and EC50 [55].

[6] = Cytotoxicity (CC50) in MT-4 cells; assay type: cell-based; conditions: human, Subtype B (X4)
Protocol: as §2, §3

[7] = tested on: HIV-1 clone ZM247Fv-1 (subtype C); assay: HIV-1 ZM247Fv-1 (subtype C) infection of human PBMCs, Cell Titer Blue readout; assay type: cell-based; conditions: for TI (CC50/EC50): Human PBMC, Subtype C (R5); for EC50: Human immunodeficiency virus 1, PBMC
Protocol: as §3
(§4) All statistical analyses were performed using program GraphPism version 6.0. Titrations for TCID50 infectivity were calculated by the Spearman-Karber method. Dose response curves to ISDs with HIV-1 subtype B and C were done using non-linear regression and were fit to the Hill equation.

[8] = tested on: HIV-1 clone NL4.3 (subtype B); assay: HIV-1 NL4.3 (subtype B) infection of MT-4 cells, Cell Titer Blue readout; assay type: cell-based; conditions: for EC50: Human immunodeficiency virus 1, MT4; for TI (CC50/EC50): MT-4 cells, Subtype B (X4)
Protocol: as §3, §4

[9] = tested on: HIV-1 clone NL4.3 (subtype B); assay: HIV-1 NL4.3 (subtype B) infection of human PBMCs, Cell Titer Blue readout; assay type: cell-based; conditions: for TI (CC50/EC50): Human PBMC, Subtype B (X4); for EC50: Human immunodeficiency virus 1, PBMC
Protocol: as §3, §4

[10] = tested on: HIV-1 clone ZM247Fv-1 (subtype C); assay: HIV-1 ZM247Fv-1 (subtype C) infection of MT-4 cells, Cell Titer Blue readout; assay type: cell-based; conditions: for EC50: Human immunodeficiency virus 1, MT4; for TI (CC50/EC50): MT-4 cells, Subtype C (R5)
Protocol: as §3, §4

[11] = tested on: HIV; set-up: method as in PMID 8787923; conditions: MT-4 cells; cited from earlier work

Compound: Cn1c2ccccc2c2c3c(c4c5ccccc5n(CCC#N)c4c21)C(=O)NC3 [GÖ6976]
- effect on ISD induction of GFP expression ([1]; 0.1 µM inhibitor): little effect
- effect on ING-B-driven receptor downregulation [2]: little effect on blocking receptor downregulation

Compound: COc1ccc2c(c1)c(C1=C(c3c[nH]c4ccccc34)C(=O)NC1=O)cn2CCCN(C)C [GÖ6983]
- blocking of GFP expression induced by ING-B ([1]; J-Lat clones 9.2 and 10.6, pre-treatment, then ING-B 24 h): strongly blocked GFP expression
- overexpression of CD4 and CCR5 compared to untreated control [3]: up to 2.5 fold
- effect on ING-B-driven receptor downregulation [2]: not able to downregulate the expression of CD4 and CXCR4

Compound: CC1=C[C@]23C(=O)[C@@H](C=C(CO)[C@@H](O)[C@]2(O)[C@H]1OC(=O)/C=C/c1ccccc1)[C@H]1[C@@H](C[C@H]3C)C1(C)C [ING-A, ingenol-3-trans-cinnamate]
- levels of GFP expression, rank order [4]: PMA = ING-B > ING-A = ING-C > prostratin
- CC50 at 5 days [5]: 34000 nM
- CC50 at 5 days [6]: 25000 nM
- TI (CC50/EC50) [7]: 693.9
- EC50 [7]: 49 nM
- EC50 [8]: 37 nM
- TI (CC50/EC50) [8]: 675.6
- TI (CC50/EC50) [9]: 641.5
- EC50 [9]: 53 nM
- EC50 [10]: 38 nM
- TI (CC50/EC50) [10]: 657.9

Compound: CCCCCCCCCCCC(=O)O[C@H]1C(C)=C[C@]23C(=O)[C@@H](C=C(CO)[C@@H](O)[C@]12O)[C@H]1[C@@H](C[C@H]3C)C1(C)C [ING-C, ingenol-3-dodecanoate]
- levels of GFP expression, rank order [4]: PMA = ING-B > ING-A = ING-C > prostratin
- CC50 at 5 days [5]: 38000 nM
- CC50 at 5 days [6]: 27000 nM
- TI (CC50/EC50) [7]: 413
- EC50 [7]: 92 nM
- EC50 [8]: 41 nM
- TI (CC50/EC50) [8]: 658.5
- TI (CC50/EC50) [9]: 730.7
- EC50 [9]: 52 nM
- EC50 [10]: 36 nM
- TI (CC50/EC50) [10]: 750

Compound: CC(=O)OCC1=C[C@@H]2C(=O)[C@]3(C=C(C)[C@H](OC(C)=O)[C@@]3(O)[C@@H]1OC(C)=O)[C@H](C)C[C@@H]1[C@H]2C1(C)C [ITA, Ingenol 3,5,20-triacetate]
- concentration inhibiting HIV replication (as low as) [11]: ≥ 0.05 µM
